Format in all cases: functional, cell-based
In one assay the test system is SK-MEL-2. As to the kind of experiment: Compound was evaluated for the growth inhibition of […] melanoma cell line. The note with it: Homo sapiens.
Another assay has as its system BRO melanoma cell line. Briefly: Compound was evaluated for the growth inhibition of BRO melanoma cell line. The following applies: Homo sapiens.
In a further assay the test system is P388. As to the kind of experiment: Compound was evaluated for the growth inhibition of p388/0 leukemia cell line. The following applies: Mus musculus.
The subject of a further assay is MCF7. Briefly: Compound was evaluated for the growth inhibition of MCF-7 breast cell line. The following applies: Homo sapiens.
A further assay concerns HT-29. As to the kind of experiment: Compound was evaluated for the growth inhibition of HT-29 colon cell line. The note with it: Homo sapiens.

Converted amounts (≈) assume the structure as drawn.

Regarding `O=C(CCC(=O)N1CCCCC1)Nc1ccc2c(ccc3c4ccccc4ccc23)c1`, the IC50 (usually the concentration that inhibits the measured activity by half) in the assay with SK-MEL-2 was 13.3 mg/L (≈ 32.4 µM); in the assay on BRO melanoma cell line, 17.3 mg/L (≈ 42.1 µM); in the assay with P388 it was 10.5 mg/L (≈ 25.6 µM); in the assay on MCF7, 10.2 mg/L (≈ 24.8 µM); with HT-29, 8.5 mg/L (≈ 20.7 µM).
In the same order, the values of `c1ccc2c(c1)ccc1c3ccc(NCCCCN4CCCCC4)cc3ccc21` are 3.8 mg/L (≈ 9.93 µM), 4.5 mg/L (≈ 11.8 µM), 2.2 mg/L (≈ 5.75 µM), 3 mg/L (≈ 7.84 µM) and 2.3 mg/L (≈ 6.01 µM).
For `COc1cccc2c1C(=O)c1c(O)c3c(c(O)c1C2=O)C[C@@](O)(C(=O)CO)C[C@@H]3O[C@H]1C[C@H](N)[C@H](O)[C@H](C)O1` [DOXORUBICIN], the IC50 in the assay with SK-MEL-2 was determined as 0.1 mg/L (≈ 0.184 µM); in the assay with BRO melanoma cell line, 0.2 mg/L (≈ 0.368 µM); in the assay on P388 it was 0.8 mg/L (≈ 1.47 µM); in the assay on MCF7 it was 0.4 mg/L (≈ 0.736 µM); with HT-29, 0.5 mg/L (≈ 0.92 µM).
In the same order, the values of `O=C(CCC(=O)N1CCCCC1)Nc1cc2c3ccccc3ccc2c2ccccc12` are 15.9 mg/L (≈ 38.7 µM), 15 mg/L (≈ 36.5 µM), 12.2 mg/L (≈ 29.7 µM), 11.5 mg/L (≈ 28 µM) and 10.1 mg/L (≈ 24.6 µM).
In the same order, the values of `CN1CCN(C(=O)CCC(=O)Nc2ccc3c(ccc4c5ccccc5ccc34)c2)CC1` are 9.2 mg/L (≈ 21.6 µM), 9.5 mg/L (≈ 22.3 µM), 7.9 mg/L (≈ 18.6 µM), 9.8 mg/L (≈ 23 µM) and 4.8 mg/L (≈ 11.3 µM).
The corresponding values for `CN1CCN(CCCCNc2ccc3c(ccc4c5ccccc5ccc34)c2)CC1` are 8.7 mg/L (≈ 21.9 µM), 8.8 mg/L (≈ 22.1 µM), 4.7 mg/L (≈ 11.8 µM), 12.1 mg/L (≈ 30.4 µM) and 9.3 mg/L (≈ 23.4 µM).
As for `CN1CCN(C(=O)CCC(=O)Nc2cc3c4ccccc4ccc3c3ccccc23)CC1`, the IC50 amounted to 10 mg/L (≈ 23.5 µM) with SK-MEL-2; 11.8 mg/L (≈ 27.7 µM) in the assay with BRO melanoma cell line; 9.8 mg/L (≈ 23 µM) in the assay with P388; 11.2 mg/L (≈ 26.3 µM) in the assay on MCF7; 6.6 mg/L (≈ 15.5 µM) in the assay on HT-29.
